Here are results for 29 compounds from ChEMBL document CHEMBL3797105, “Investigation of triazole-linked indole and oxindole glycoconjugates as potential anticancer agents: novel Akt/PKB signaling pathway inhibitors” (Medchemcomm, 2016).

The nature of assay [1]: Cytotoxicity against mouse NIH/3T3 cells after 48 hrs by sulforhodamine B assay. The settings on record: NIH3T3, 48 h. For orientation: In SRB staining, fixed cells bind dye roughly in proportion to their protein.
A further assay concerns HeLa. Briefly: Cytotoxicity against human HeLa cells after 48 hrs by sulforhodamine B assay. The class given is functional, cell-based.
The nature of assay [2]: Cytotoxicity against human DU145 cells after 48 hrs by sulforhodamine B assay. The class given is functional, cell-based. The settings on record: DU-145, 48 h.
For the next assay, the system named is A549. Briefly: Cytotoxicity against human A549 cells after 48 hrs by sulforhodamine B assay. In kind it is functional, cell-based. The following applies: A549, 48 h.
A further assay concerns MCF7. Briefly: Cytotoxicity against human MCF7 cells after 48 hrs by sulforhodamine B assay. The settings on record: MCF7, 48 h. In kind it is functional, cell-based.

The term IC50 denotes the point on the concentration scale where inhibition reaches its midpoint.

Consider `CC(=O)OC[C@H]1O[C@@H](n2cc(CN3C(=O)/C(=C/c4ccccn4)c4ccccc43)nn2)[C@H](OC(C)=O)[C@@H](OC(C)=O)[C@@H]1OC(C)=O`, for which the IC50 is over 100 µM in assay [1]; 51.7 µM in the assay with HeLa; 48.3 µM in assay [2]; 26.1 µM in the assay on A549; 32.1 µM with MCF7.
The corresponding values for `CC(=O)OC[C@H]1O[C@@H](n2cc(Cn3cc(/C=C4/C(=O)Nc5ccccc54)c4ccccc43)nn2)[C@H](OC(C)=O)[C@@H](OC(C)=O)[C@@H]1OC(C)=O` are over 200 µM, over 200 µM, over 200 µM, over 200 µM and 22.2 µM.
Take `CC(=O)OC[C@H]1O[C@@H](n2cc(CN3C(=O)/C(=C\c4ccc(N(C)C)cc4)c4ccccc43)nn2)[C@H](OC(C)=O)[C@@H](OC(C)=O)[C@@H]1OC(C)=O`: the half-maximal inhibitory concentration (IC50) in assay [1] came to 17 µM; with HeLa it was 25 µM; in assay [2], 10.1 µM; in the assay with A549, 17.7 µM; in the assay on MCF7, 29.8 µM.
As for `CC(=O)OC[C@H]1O[C@@H](n2cc(CN3C(=O)/C(=C\c4ccco4)c4ccccc43)nn2)[C@H](OC(C)=O)[C@@H](OC(C)=O)[C@@H]1OC(C)=O`, the IC50 is 13.3 µM in assay [1]; over 100 µM in the assay on HeLa; 16.9 µM in assay [2]; 41.1 µM in the assay with A549; 38.2 µM with MCF7.
For `CCC/C=C1/C(=O)N(Cc2cn([C@@H]3O[C@H](COC(C)=O)[C@@H](OC(C)=O)[C@H](OC(C)=O)[C@H]3OC(C)=O)nn2)c2ccccc21`, in that order: over 100 µM, over 100 µM, 19.7 µM, 24.1 µM and 22.6 µM.
As for `CC(=O)OC[C@H]1O[C@@H](n2cc(CN3C(=O)/C(=C/c4ccc5ccccc5c4)c4ccccc43)nn2)[C@H](OC(C)=O)[C@@H](OC(C)=O)[C@@H]1OC(C)=O`, the IC50 in assay [1] is 28.4 µM; in the assay on HeLa, over 100 µM; in assay [2], 43.7 µM; with A549 it was 30.9 µM; in the assay with MCF7, 32.7 µM.
The corresponding values for `CC(=O)OC[C@H]1O[C@@H](n2cc(CN3C(=O)/C(=C\c4cccs4)c4ccccc43)nn2)[C@H](OC(C)=O)[C@@H](OC(C)=O)[C@@H]1OC(C)=O` are 14.6 µM, over 100 µM, 22.8 µM, 16.1 µM and 36.1 µM.
Regarding `CC(=O)OC[C@H]1O[C@@H](n2cc(CN3C(=O)/C(=C\c4ccccc4)c4ccccc43)nn2)[C@H](OC(C)=O)[C@@H](OC(C)=O)[C@@H]1OC(C)=O`, the IC50 was found to be 22.8 µM in assay [1]; 33.3 µM in the assay with HeLa; 24.1 µM in assay [2]; 17.9 µM in the assay on A549; 24.3 µM in the assay on MCF7.
For `COc1ccc2c(c1)c(/C=C1/C(=O)Nc3ccc(F)cc31)cn2Cc1cn([C@@H]2O[C@H](COC(C)=O)[C@@H](OC(C)=O)[C@H](OC(C)=O)[C@H]2OC(C)=O)nn1`, the IC50 (in assay [1]; in the assay with HeLa; in assay [2]; in the assay with A549; in the assay with MCF7) was over 200 µM throughout.
As to `CCC/C=C1\C(=O)N(Cc2cn([C@@H]3O[C@H](COC(C)=O)[C@@H](OC(C)=O)[C@H](OC(C)=O)[C@H]3OC(C)=O)nn2)c2ccccc21`, the half-inhibitory concentration (IC50) in assay [1] is over 100 µM; in the assay with HeLa, 46.3 µM; in assay [2], 26.6 µM; in the assay with A549, 40.4 µM; in the assay on MCF7, 25 µM.
The corresponding values for `COc1ccc2c(c1)c(C=O)cn2Cc1cn([C@@H]2O[C@H](COC(C)=O)[C@@H](OC(C)=O)[C@H](OC(C)=O)[C@H]2OC(C)=O)nn1` are over 200 µM, over 200 µM, 136 µM, 106 µM and over 200 µM.
The corresponding values for `CC(=O)OC[C@H]1O[C@@H](n2cc(Cn3cc([N+](=O)[O-])c4ccccc43)nn2)[C@H](OC(C)=O)[C@@H](OC(C)=O)[C@@H]1OC(C)=O` are 20.5 µM, over 200 µM, 60.9 µM, 93.2 µM and over 200 µM.
For the compound `COc1cccc2c1C(=O)c1c(O)c3c(c(O)c1C2=O)C[C@@](O)(C(=O)CO)C[C@@H]3O[C@H]1C[C@H](N)[C@H](O)[C@H](C)O1` [DOXORUBICIN], the concentration for half-maximal inhibition (IC50) in assay [1] turned out to be 10.1 µM; in the assay on HeLa, 7.2 µM; in assay [2] it was 5.4 µM; in the assay with MCF7 it was 6.1 µM.
Consider `O=C(/C=C/c1c[nH]c2ccccc12)c1ccccc1`, for which the IC50 (in assay [1]; in the assay with HeLa; in assay [2]; with A549; in the assay on MCF7) was over 200 µM each time.
For the compound `CC(=O)OC[C@H]1O[C@@H](n2cc(CN3C(=O)/C(=C\c4ccc5ccccc5c4)c4ccccc43)nn2)[C@H](OC(C)=O)[C@@H](OC(C)=O)[C@@H]1OC(C)=O`, the 50% inhibitory concentration (IC50) in assay [1] was 80 µM; in the assay with HeLa it was over 100 µM; in assay [2] it was over 100 µM; in the assay with A549 it was 62.2 µM; with MCF7, 46.5 µM.
In the case of `CC(=O)OC[C@H]1O[C@@H](n2cc(Cn3cc(/C=C4/C(=O)Nc5ccc(F)cc54)c4ccccc43)nn2)[C@H](OC(C)=O)[C@@H](OC(C)=O)[C@@H]1OC(C)=O`, the IC50 in assay [1] was 62.5 µM; in the assay on HeLa, over 200 µM; in assay [2], 87.4 µM; in the assay on A549, 36.9 µM; in the assay with MCF7 it was 40.4 µM.
The corresponding values for `CC(=O)OC[C@H]1O[C@@H](n2cc(CN3C(=O)/C(=C\c4ccc(C)cc4)c4ccccc43)nn2)[C@H](OC(C)=O)[C@@H](OC(C)=O)[C@@H]1OC(C)=O` are 9 µM, over 100 µM, 9.4 µM, 16.5 µM and over 100 µM.
On to `CC(=O)OC[C@H]1O[C@@H](OC(C)=O)[C@H](OC(C)=O)[C@@H](OC(C)=O)[C@@H]1OC(C)=O`, for which the IC50 (in assay [1]; in the assay with HeLa; in assay [2]; in the assay with A549; with MCF7) was over 200 µM each time.
As for `Cc1ccc(/C=C2/C(=O)Nc3ccccc32)cc1`, the IC50 (in assay [1]; in the assay on HeLa; in assay [2]; with A549; with MCF7) was over 100 µM in each case.
Regarding `CC(=O)OC[C@H]1O[C@@H](n2cc(CN3C(=O)/C(=C/c4ccc(N(C)C)cc4)c4ccccc43)nn2)[C@H](OC(C)=O)[C@@H](OC(C)=O)[C@@H]1OC(C)=O`, the IC50 was determined as 12.7 µM in assay [1]; 26.3 µM in the assay with HeLa; 11.2 µM in assay [2]; 19.4 µM with A549; 25.2 µM with MCF7.
As for `COc1ccc(/C=C2\C(=O)N(Cc3cn([C@@H]4O[C@H](COC(C)=O)[C@@H](OC(C)=O)[C@H](OC(C)=O)[C@H]4OC(C)=O)nn3)c3ccccc32)cc1OC`, the half-maximal inhibitory concentration (IC50) in assay [1] was over 100 µM; in the assay on HeLa, 63.4 µM; in assay [2], 24.9 µM; in the assay with A549, 23.3 µM; in the assay on MCF7 it was 23.5 µM.
The corresponding values for `CC(=O)OC[C@H]1O[C@@H](n2cc(CN3C(=O)/C(=C/c4ccccc4)c4ccccc43)nn2)[C@H](OC(C)=O)[C@@H](OC(C)=O)[C@@H]1OC(C)=O` are over 100 µM, 37.1 µM, 22.8 µM, 20.6 µM and 30.2 µM.
For `CC(=O)OC[C@H]1O[C@@H](n2cc(Cn3cc(C(C)=O)c4ccccc43)nn2)[C@H](OC(C)=O)[C@@H](OC(C)=O)[C@@H]1OC(C)=O`, in that order: over 200 µM, over 200 µM, 75.2 µM, over 200 µM and over 200 µM.
The corresponding values for `CC(=O)OC[C@H]1O[C@@H](n2cc(CN3C(=O)/C(=C/C=C/c4ccccc4)c4ccccc43)nn2)[C@H](OC(C)=O)[C@@H](OC(C)=O)[C@@H]1OC(C)=O` are 12.3 µM, over 100 µM, 17.1 µM, over 100 µM and 53.2 µM.
Regarding `CC(=O)OC[C@H]1O[C@@H](n2cc(Cn3cc(/C=C/C(=O)c4cccnc4)c4ccccc43)nn2)[C@H](OC(C)=O)[C@@H](OC(C)=O)[C@@H]1OC(C)=O`, the IC50 in assay [1] was over 200 µM; in the assay on HeLa it was over 200 µM; in assay [2], 29 µM; with A549, 39.8 µM; in the assay on MCF7 it was 22.3 µM.
Consider `CC(=O)OC[C@H]1O[C@@H](n2cc(Cn3cc(/C=C/C(=O)c4c5ccccc5cc5ccccc45)c4ccccc43)nn2)[C@H](OC(C)=O)[C@@H](OC(C)=O)[C@@H]1OC(C)=O`, for which the IC50 in assay [1] is over 200 µM; in the assay on HeLa it was 165 µM; in assay [2], 58.1 µM; in the assay on A549 it was 46.8 µM; in the assay with MCF7, 44 µM.
In the case of `CC(=O)OC[C@H]1O[C@@H](n2cc(CN3C(=O)/C(=C/c4ccco4)c4ccccc43)nn2)[C@H](OC(C)=O)[C@@H](OC(C)=O)[C@@H]1OC(C)=O`, the IC50 came out at 31.8 µM in assay [1]; 29.9 µM in the assay on HeLa; 10 µM in assay [2]; 14.5 µM in the assay with A549; 29.1 µM with MCF7.
For `CC(=O)OC[C@H]1O[C@@H](n2cc(CN3C(=O)/C(=C/c4cccs4)c4ccccc43)nn2)[C@H](OC(C)=O)[C@@H](OC(C)=O)[C@@H]1OC(C)=O`, in that order: 48.1 µM, 36.9 µM, 23.4 µM, 20.8 µM and 28.1 µM.
The corresponding values for `CC(=O)OC[C@H]1O[C@@H](n2cc(Cn3cc(C=O)c4ccccc43)nn2)[C@H](OC(C)=O)[C@@H](OC(C)=O)[C@@H]1OC(C)=O` are over 200 µM, 44.5 µM, 58.7 µM, over 200 µM and 25.2 µM.
